Reference: US20090054259A1, “METHODS FOR INDUCING COMPLETE APOPTOSIS OF LIVER CELLS EXPRESSING HBCHI PROTEIN AND SCREENING FOR SUBSTANCES OR GENES THAT INHIBIT THE APOPTOSIS” (priority 2004, published 2009)
Where two headings read alike, the source gives them in different places.

Legend:
Chang X31 cells [1] = format: cell-based, human
Chang X31 cells [2] = format: cell-based, human; details: for extent of apoptosis: 120 h
Chang V9 cells [3] = assay: Induction of apoptosis by sulfasalazine in the control liver cell line not expressing HBx protein; format: cell-based, human; details: for extent of apoptosis: 120 h
Chang V9 cells [4] = assay: DAPI staining, morphology of apoptosis; format: cell-based, human; details: 1.3 mM sulfasalazine, 72 hours
Protocol: (§1) Chang X 31 and Chang V9 cells were split on 6-well plates, and […], treated with 1.3 mM sulfasalazine.
(§2) 72 hours after the sulfasalzine treatment, DAPI staining was performed to observe apoptosis. The cells were directly fixed in the cold solution consisting of 1% […] and 0.2% glutaraldehyde for 5 min, washed twice with PBS and then stained with 1 mg/ml of DAPI solution (Sigma, USA). The cells were incubated for 5 hours in dark.
(§3) The stained cells were examined using a fluorescent microscopy.

Chang X31 cells [5] = assay: DAPI staining, morphology of apoptosis; format: cell-based, human; details: 1.3 mM sulfasalazine, 72 hours
Protocol: as §1, §2, §3

NF-κB = details: through inhibiting the phosphorylation of IκB; Wahl et al. 1998; cited from earlier work

CN[C@@H]1C[C@H]2O[C@@](C)([C@@H]1OC)n1c3ccccc3c3c4c(c5c6ccccc6n2c5c31)C(=O)NC4 [STS, staurosporine]
apoptosis (Chang X31 cells [1]; 0.5 mM STS (group III) before 1.3 mM sulfasalazine, 120 h, crystal violet): 100%

CC(=O)N[C@@H](CS)C(=O)O [NAC, N-acetyl-L-cystein]
apoptosis (Chang X31 cells [1]; 2 mM GSH (group I), 1 mM NAC (group II) before 1.3 mM sulfasalazine, 120 h, crystal violet): only partial apoptosis | inhibition of the apoptosis of the liver cell line (conclusion) (Chang X31 cells [1]; 2 mM GSH, 1 mM NAC, 0.5 mM STS, […]): effective in inhibiting the apoptosis

O=C(O)c1cc(/N=N/c2ccc(S(=O)(=O)Nc3ccccn3)cc2)ccc1O [sulfasalazine]
survival rate (Chang X31 cells [2]; 1.0 mM sulfasalazine, re-treated at 48 h, read 72 h after re-treatment (120 h), […]): at least 50% | extent of apoptosis (Chang X31 cells [2]; 1.3 mM sulfasalazine, […]): 100% | extent of apoptosis (Chang X31 cells [2]; at least 1.5 mM sulfasalazine, […]): 100% | concentration inducing complete apoptosis of Chang X31 cells (Chang X31 cells [2]; complete (100%) apoptosis within 120 hours): at least 1.3 mM | survival rate (Chang V9 cells [3]; 1.0 mM sulfasalazine, re-treated at 48 h, read 72 h after re-treatment (120 h)): at least 50% | extent of apoptosis (Chang V9 cells [3]; 1.3 mM sulfasalazine): 10% | extent of apoptosis (Chang V9 cells [3]; at least 1.5 mM sulfasalazine): at least 20% | typical features of apoptosis (nuclear condensation, shrinkage, fragmentation) (Chang V9 cells [4]): not in Chang V9 | typical features of apoptosis (nuclear condensation, shrinkage, fragmentation) (Chang X31 cells [5]): observed in only Chang X 31 | effect on TNF-α-induced nuclear translocation of NF-κB (NF-κB): prevents TNF-α-induced nuclear translocation of NF-κB

N[C@@H](CCC(=O)N[C@@H](CS)C(=O)NCC(=O)O)C(=O)O [GSH, glutathione]
apoptosis (Chang X31 cells [1]): only partial apoptosis | inhibition of the apoptosis of the liver cell line (conclusion) (Chang X31 cells [1]): effective in inhibiting the apoptosis
